Experimental data published in patent US9242984B2, “Pyrazolyl derivatives as Syk inhibitors” (Merck Sharp & Dohme Corp., priority 2012, dated 2016).
Like-named read-outs stand apart in the source and are kept apart here.

Target: T1, recombinant human Syk (GST-hSyk fusion protein) (Homo sapiens, UniProt P43405)
T1 construct: purchased Carna Biosciences 08-176
Experiment: Homogeneous Time-Resolved Fluorescence (HTRF) assay for the recombinant human Syk enzyme
Format: biochemical
Details: 10-dose titration, 25 μM ATP
Procedure, shortened: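 IC50 came from a four-parameter fit over ten doses, 10 μM to 0.508 nM, with HTRF read-out (Eu-anti-pTyr antibody, SA-APC, EDTA stop, 30 min). The enzyme, 5 pM GST-hSyk, met compound for 10 min, then phosphorylated 250 nM biotin-peptide with 25 μM ATP and 5 mM Mg for 45 min at room temperature, pH 7.5.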

[1] = IC50 class, read-out: rhSYK Activity

Compound	IC50 [1] [nM]	IC50 (read-out: rhSYK IC50) [nM]
Cc1cc(Nc2nccc(C(C)(F)F)n2)cc(-c2cnn(CC3OC(=O)NC3(C)C)c2)c1 (stereo not drawn) [Example 3.104, 5-{[4-(3-{[4-(1,1-difluoroethyl)pyrimidin-2-yl]amino}-5-methylphenyl)-1H-pyrazol-1-yl]methyl}-4,4-dimethyl-1,3-oxazolidin-2-one]	≤ 100	
Cc1cc(Nc2nccc(C(F)(F)F)n2)cc(-n2cc(CCC(=O)O)cn2)c1 [Example 19.1, 3-(1-(3-methyl-5-((4-(trifluoromethyl)pyrimidin-2-yl)amino)phenyl)-1H-pyrazol-4-yl)propanoic acid]	≤ 100	61
COc1nc(Nc2cc(C)cc(-c3cnn(C[C@@H](O)C(=O)O)c3)c2)ncc1Cl [Example 11.9, (2R)-3-(4-{3-[(5-chloro-4-methoxy-pyrimidin-2-yl)-amino]-5-methyl-phenyl}-1H-pyrazol-1-yl)-2-hydroxy-propanoic acid]	≤ 100	
Cc1cc(Nc2nccc(C(C)(F)F)n2)cc(-c2cnn(CC(C)(O)CC#N)c2)c1 (stereo not drawn) [Example 20.10, 4-[4-(3-{[4-(1,1-difluoroethyl)pyrimidin-2-yl]amino}-5-methylphenyl)-1H-pyrazol-1-yl]-3-hydroxy-3-methylbutanenitrile]	≤ 100	
COc1ccc(OCC(O)Cn2cc(-c3cc(C)cc(Nc4nccc(C(F)(F)F)n4)c3)cn2)cc1 (stereo not drawn) [Example 5.11, 1-(4-methoxy-phenoxy)-3-[4-(3-methyl-5-{[4-(trifluoromethyl)-pyrimidin-2-yl]amino}phenyl)-1H-pyrazol-1-yl]propan-2-ol]	100 to 1000	
COCC(=O)NC(C)(C)Cn1cc(-c2cc(C)cc(Nc3nccc(C(F)F)n3)c2)cn1 [Example 26.3, N-{2-[4-(3-{[4-(difluoromethyl)pyrimidin-2-yl]amino}-5-methylphenyl)-1H-pyrazol-1-yl]-1,1-dimethylethyl}-2-methoxyacetamide]	≤ 100	
Cc1cc(Nc2nccc(C(F)(F)F)n2)cc(-c2cnn(CC(C)(O)C(N)=O)c2)c1 (single isomer, unassigned) [Example 8.15, 2-hydroxy-2-methyl-3-[4-(3-methyl-5-{[4-(trifluorometh-yl)pyrimidin-2-yl]amino}phenyl)-1H-pyrazol-1-yl]propanamide]	≤ 100	
Cc1cc(Nc2nccc(C(C)(F)F)n2)cc(-c2cnn(CC(C)(O)C(C)(C)O)c2)c1 (stereo not drawn) [Example 22.5, 1-[4-(3-{[4-(1,1-difluoroethyl)pyrimidin-2-yl]amino}-5-methylphenyl)-1H-pyrazol-1-yl]-2,3-dimethylbutane-2,3-diol]	≤ 100	
N-[2-methyl-6-(1-methyl-1H-pyrazol-4-yl)pyridin-4-yl]-4-(trifluoromethyl)-pyrimidin-2-amine [Example 1.43]	100 to 1000	
Cc1cc(Nc2nccc(C(F)F)n2)cc(-c2cnn(C(C)C3CNC(=O)C3)c2)c1 (stereo not drawn) [Example 2.67, 4-{1-[4-(3-{[4-(difluoromethyl)pyrimidin-2-yl]amino}-5-methylphenyl)-1H-pyrazol-1-yl]ethyl}pyrrolidin-2-one]	≤ 100	
Cc1cc(Nc2nccc(C(F)(F)F)n2)cc(-c2cnn(CCS(C)(=O)=O)c2)c1 [Example 3.48, N-(3-methyl-5-{1-[2-(methylsulfonyl)ethyl]-1H-pyrazol-4-yl}phenyl)-4-(trifluoromethyl)pyrimidin-2-amine]	≤ 100	
CCOC(=O)CCn1cc(-c2cc(C)cc(Nc3cc(C)c(Cl)cn3)n2)cn1 [Example 1.25, ethyl 3-(4-{6-[(5-chloro-4-methylpyridin-2-yl)amino]-4-methylpyridin-2-yl}-1H-pyrazol-1-yl)propanoate]	100 to 1000	
Cc1cc(Nc2nccc(C(F)(F)F)n2)cc(-c2cnn(C[C@@H]3COC(=O)N3)c2)c1 [Example 3.97, (4R)-4-{[4-(3-methyl-5-{[4-(trifluoromethyl)pyrimidin-2-yl]amino}phenyl)-1H-pyrazol-1-yl]methyl}-1,3-oxazolidin-2-one]	≤ 100	
Cc1cc(Nc2nccc(C(F)(F)F)n2)cc(-c2cnn(C3CCC(C(=O)O)CC3O)c2)c1 (stereo not drawn) [Example 5.39, 3-hydroxy-4-[4-(3-methyl-5-{[4-(trifluoromethyl)pyrimidin-2-yl]amino}phenyl)-1H-pyrazol-1-yl]cyclohexane-carboxylic acid]	≤ 100	
Cc1cc(Nc2nccc(C(F)(F)F)n2)cc(-c2cnn(CC(=O)N3COCC3(C)C)c2)c1 [Example 3.11, N-(3-{1-[2-(4,4-dimethyl-1,3-oxazolidin-3-yl)-2-oxoethyl]-1H-pyrazol-4-yl}-5-methylphenyl)-4-(trifluoromethyl)pyrimidin-2-amine]	≤ 100	
Cc1cc(Nc2nccc(C(F)F)n2)cc(-c2cnn(CCC(N)=O)c2)c1 [Example 2.9, 3-[4-(3-{[4-(difluoromethyl)pyrimidin-2-yl]amino}-5-methylphenyl)-1H-pyrazol-1-yl]propanamide]	≤ 100	
Cc1cc(Nc2nccc(C(F)(F)F)n2)cc(-c2cnn(CC(O)C(N)=O)c2)c1 (single isomer, unassigned) [Example 7.1, (R or S)-2-hydroxy-3-[4-(3-methyl-5-{[4-(trifluoromethyl)pyrimidin-2-yl]amino}phenyl)-1H-pyrazol-1-yl]propanamide]	≤ 100	1.1
Cc1cc(Nc2nccc(C3CC3)n2)cc(-c2cnn(CC3CNC(=O)O3)c2)c1 (stereo not drawn) [Example 2.19, 5-[(4-{3-[(4-cyclopropylpyrimidin-2-yl)amino]-5-methylphenyl}-1H-pyrazol-1-yl)methyl]-1,3-oxazolidin-2-one]	≤ 100	
Cc1cc(Nc2nccc(C(F)(F)F)n2)cc(-c2cn[nH]c2)n1 [Example 1.44, N-[2-methyl-6-(1H-pyrazol-4-yl)pyridin-4-yl]-4-(trifluoro-methyl)pyrimidin-2-amine]	100 to 1000	
Cc1cc(Nc2nccc(C(F)F)n2)cc(-c2cnn(CC(O)CO)c2)c1 (stereo not drawn) [Example 3.112, 3-[4-(3-{[4-(difluoromethyl)pyrimidin-2-yl]amino}-5-methylphenyl)-1H-pyrazol-1-yl]propane-1,2-diol]	≤ 100	
Cc1cc(Nc2nccc(C(F)F)n2)cc(-c2cnn(CC3OC(=O)NC3C)c2)c1 (single isomer, unassigned) [Example 23.13, 5-{[4-(3-{[4-(difluoromethyl)pyrimidin-2-yl]amino}-5-methylphenyl)-1H-pyrazol-1-yl]methyl}-4-methyl-1,3-oxazolidin-2-one]	≤ 100	
Cc1cc(Nc2cc(C(F)F)ccn2)nc(-c2cnn(C(C)C3CNC(=O)O3)c2)c1 (stereo not drawn) [Example 3.88, 5-{1-[4-(6-{[4-(difluoromethyl)pyridin-2-yl]amino}-4-methylpyridin-2-yl)-1H-pyrazol-1-yl]ethyl}-1,3-oxazolidin-2-one]	≤ 100	
Cc1cc(Nc2nccc(C(F)(F)F)n2)cc(-c2cnn(CCOCCO)c2)c1 [Example 3.19]	≤ 100	
Cc1cc(Nc2nccc(C(C)F)n2)cc(-c2cnn(C[C@H](O)C(N)=O)c2)c1 (stereo partly drawn) [Example 6.8, (2S)-3-[4-(3-{[4-(1-fluoroethyl)-pyrimidin-2-yl]amino}-5-methylphenyl)-1H-pyrazol-1-yl]-2-hydroxy-propanamide]	≤ 100	
Cc1cc(Nc2nccc(C(F)F)n2)cc(-c2cnn(CC(O)C(=O)O)c2)c1 (stereo not drawn) [Example 5.36, 3-[4-(3-{[4-(difluoromethyl)pyrimidin-2-yl]amino}-5-methylphenyl)-1H-pyrazol-1-yl]-2-hydroxypropanoic acid]	≤ 100	
